Among the data in US11414416B1, “Compounds and uses thereof” (Foghorn Therapeutics Inc., priority 2019, dated 2022) are IC50 and DC50 values, retold here.

Each structure is given as a SMILES string. A value given as a limit tells only on which side of the number the result lay.

As a reminder, the IC50 is the midpoint of a concentration-inhibition curve. Higher therefore signals weaker potency.

One experiment deals with BRD9 bromodomain (Homo sapiens (Human), UniProt Q9H8M2). The experiment can be described thus: BRD9 bromodomain TR-FRET competition binding assay. As to conditions: Table 4; competition with biotinylated ligand, 3 nM Flag-BRD9, 90 minutes. How it is done:
Procedure: His-Flag-BRD9 (P133-K239; Swiss Prot Q9H8M2; SEQ ID NO:1 mgsshhhhhhenlyfq/gdykddddkgslevlfqg/[…] […]) was cloned, expressed, purified, and then treated with TEV protease. Cleaved His tag was removed by purification. The binding of a biotinylated small molecule ligand of BRD9 was assessed via the LANCE® TR-FRET platform (PerkinElmer), and the compounds were assayed for inhibitory activity against this interaction.
A mixture of biotinylated-ligand and SureLight™ Allophycocyanin-Streptavidin (APC-SA, PerkinElmer AD0201) in 50 mM HEPES (pH 7.4), 50 mM NaCl, 1 mM TCEP (pH 7), 0.01% (v/v) Tween-20, 0.01% (w/v) bovine serum albumin was added to a white 384-well PerkinElmer Proxiplate Plus plate. DMSO or 3-fold serially diluted compounds were then added to the Proxiplate followed by addition of Flag-BRD9. After a 10-minute incubation at room temperature, Eu-W1024 anti-FLAG (PerkinElmer, AD0273) was added. The final reaction mixture that contained 3.75 nM biotinylated ligand, 3 nM Flag-BRD9, 7.5 nM SureLight™ Allophycocyanin-Streptavidin, and 0.2 nM Eu-W1024 anti-FLAG was incubated at room temperature for 90 minutes.
Results: The plates were then read on a PerkinElmer Envision plate reader to determine the ratio of emission at 665 nm over 615 nm. […]
Background: TR-FRET usually uses a lanthanide donor and a delayed reading to cut background.

In experiment [1] the target is Nanoluciferase-BRD9 fusion protein (Homo sapiens (Human), UniProt Q9H8M2). The experiment is described as follows: SYO1 BRD9 NanoLuc degradation assay. Type of experiment: cell-based. As to conditions: Table 5A, SYO-1 cells expressing 3×FLAG-NLuc-BRD9, 6 hours; for DC50: read-out: SYO1 BRD9-NanoLuc degradation IC50. The procedure, abridged: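 Degradation was read as loss of nanoluciferase signal (Nano-Glo) after 6 h compound exposure in a stable SYO-1 line carrying 3×FLAG-NLuc-BRD9 (8000 cells/well). Normalised between DMSO (high) and a 1 μM known BRD9 degrader (low).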
Chain of Nanoluciferase-BRD9 fusion protein (Q9H8M2 whole entry, the tested form may be a part): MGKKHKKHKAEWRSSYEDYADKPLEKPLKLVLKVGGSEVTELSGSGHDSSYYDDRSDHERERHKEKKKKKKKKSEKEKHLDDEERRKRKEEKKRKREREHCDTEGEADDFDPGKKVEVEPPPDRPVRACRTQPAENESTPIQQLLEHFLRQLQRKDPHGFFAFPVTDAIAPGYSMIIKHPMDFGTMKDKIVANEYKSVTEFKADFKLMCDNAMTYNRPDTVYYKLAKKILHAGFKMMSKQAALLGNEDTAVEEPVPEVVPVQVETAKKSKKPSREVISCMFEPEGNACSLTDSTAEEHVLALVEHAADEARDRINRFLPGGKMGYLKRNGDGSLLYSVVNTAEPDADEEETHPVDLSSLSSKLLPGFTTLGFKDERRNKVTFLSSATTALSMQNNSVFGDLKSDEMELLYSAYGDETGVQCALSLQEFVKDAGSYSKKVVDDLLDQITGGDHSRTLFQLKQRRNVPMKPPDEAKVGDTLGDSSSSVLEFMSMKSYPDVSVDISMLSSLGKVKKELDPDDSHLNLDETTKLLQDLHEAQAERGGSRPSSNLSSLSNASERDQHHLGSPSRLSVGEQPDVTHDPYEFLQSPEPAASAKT

Chain of BRD9 bromodomain (Q9H8M2 133-239): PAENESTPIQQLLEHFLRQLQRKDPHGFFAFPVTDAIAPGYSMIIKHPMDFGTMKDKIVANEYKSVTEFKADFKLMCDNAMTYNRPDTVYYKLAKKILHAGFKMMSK

As for `COc1cc(-c2cn(C)c(=O)c3cnccc23)cc(OC)c1CN1CCN(C(=O)C2CC2CNC(=O)COc2ccc3c(c2)C(=O)N(C2CCC(=O)NC2=O)C3=O)CC1` (centres unmarked) [Compound D66, N-[[2-(4-[[2,6-dimethoxy-4-(2-methyl-1-oxo-2,7-naphthyridin-4-yl)phenyl]methyl]piperazine-1-carbonyl)cyclopropyl]methyl]-2-[[2-(2,6-dioxopiperidin-3-yl)-1,3-dioxoisoindol-5-yl]oxy]acetamide formic acid], the half-maximal inhibitory concentration (IC50) lay within 10 to 100 nM on BRD9 bromodomain and 100 to 1000 nM in experiment [1].

The compound `COc1cc(-c2cn(C)c(=O)c3cnccc23)cc(OC)c1CN1CCC2(C1)CN(C(=O)CCOCCOc1cccc3c1C(=O)N(C1CCC(=O)NC1=O)C3=O)C2` (centres unmarked) [Compound D87] came in with an IC50 at BRD9 bromodomain of under 10 nM. In experiment [1], the DC50 fell in the range of 10 to 100 nM.

`COc1cc(-c2cn(C)c(=O)c3cnccc23)cc(OC)c1CN(C)CC(=O)N1CCC(C2CCN(C(=O)COc3cccc4c3C(=O)N(C3CCC(=O)NC3=O)C4=O)CC2)CC1` (centres unmarked) [Compound D2, 4-(2-[1-[2-([[2,6-dimethoxy-4-(2-methyl-1-oxo-1,2-dihydro-2,7-naphthyridin-4-yl)phenyl]methyl](methyl)amino)acetyl]-[4,4-bipiperidin]-1-yl]-2-oxoethoxy)-2-(2,6-dioxopiperidin-3-yl)-2,3-dihydro-1H-isoindole-1,3-dione]: on BRD9 bromodomain, the IC50 was under 10 nM. Moreover, in experiment [1], the DC50 was 10 to 100 nM.

Compound `COc1cc(-c2cn(C)c(=O)c3cnccc23)cc(OC)c1CN1CC(C(=O)NCCCCCCCCNC(=O)COc2cccc3c2C(=O)N(C2CCC(=O)NC2=O)C3=O)C1` (centres unmarked) [Compound D4, N-[8-[(1-[[2,6-dimethoxy-4-(2-methyl-1-oxo-1,2-dihydro-2,7-naphthyridin-4-yl)phenyl]methyl]azetidin-3-yl)formamido]octyl]-2-[[2-(2,6-dioxopiperidin-3-yl)-1,3-dioxo-2,3-dihydro-1H-isoindol-4-yl]oxy]acetamide formic acid] registered an IC50 at BRD9 bromodomain of under 10 nM. The DC50 in experiment [1] was in the range of 10 to 100 nM.

On to `COc1cc(-c2cn(C)c(=O)c3cnccc23)cc(OC)c1CN1CCC2(C1)CN(C(=O)CCOCCOc1ccc3c(c1)C(=O)N(C1CCC(=O)NC1=O)C3=O)C2` (centres unmarked) [Compound D99], for which the IC50 (on BRD9 bromodomain; in experiment [1]) was 10 to 100 nM throughout.

`COc1cc(-c2cn(C)c(=O)c3cnccc23)cc(OC)c1CN(C)CC1CC2CN(C(=O)CCOCCOc3cccc4c3C(=O)N(C3CCC(=O)NC3=O)C4=O)C[C@@H]2C1` (some centres unmarked) [Compound D166] came in with an IC50 on BRD9 bromodomain of under 10 nM. Moreover, in experiment [1], the DC50 was 10 to 100 nM.

`COc1cc(-c2cn(C)c(=O)c3cnccc23)cc(OC)c1CN(C)CC1CC2(CCN(C(=O)CCOCCOc3cccc4c3C(=O)N(C3CCC(=O)NC3=O)C4=O)CC2)C1` (centres unmarked) [Compound D165]: the IC50 (at BRD9 bromodomain; in experiment [1]) was 10 to 100 nM throughout.

Take `COc1cc(-c2cn(C)c(=O)c3cnccc23)cc(OC)c1CN1CCC(OC2CCN(C(=O)CCOCCOc3ccc4c(c3)C(=O)N(C3CCC(=O)NC3=O)C4=O)C2)CC1` (centres unmarked) [Compound D130]: the IC50 (on BRD9 bromodomain; in experiment [1]) was under 10 nM each time.

`COc1cc(-c2cn(C)c(=O)c3cnccc23)cc(OC)c1CN1CCC12CN(C(=O)CCOCCOc1ccc3c(c1)C(=O)N(C1CCC(=O)NC1=O)C3=O)C2` (centres unmarked) [Compound D98]: the IC50 (at BRD9 bromodomain; in experiment [1]) was 100 to 1000 nM in each case.

`COc1cc(-c2cn(C)c(=O)c3cnccc23)cc(OC)c1CN(C)CC1CC12CCN(C(=O)CCOCCOc1ccc3c(c1)C(=O)N(C1CCC(=O)NC1=O)C3=O)CC2` (centres unmarked) [Compound D172] gave an IC50 on BRD9 bromodomain of under 10 nM. In experiment [1], the DC50 lay within 10 to 100 nM.

Take `COc1cc(-c2cn(C)c(=O)c3cnccc23)cc(OC)c1CN1CCC2(CCN(C(=O)CCOCCOc3ccc4c(c3)C(=O)N(C3CCC(=O)NC3=O)C4=O)CC2)C1` (centres unmarked) [Compound D120]: the IC50 (on BRD9 bromodomain; in experiment [1]) was 10 to 100 nM throughout.

As to `COc1cc(-c2cn(C)c(=O)c3cnccc23)cc(OC)c1CN1CC(S(=O)(=O)NCCOCCOCCNc2cccc3c2C(=O)N(C2CCC(=O)NC2=O)C3=O)C1` (centres unmarked) [Compound D38, 1-[[2,6-dimethoxy-4-(2-methyl-1-oxo-2,7-naphthyridin-4-yl)phenyl]methyl]-N-[2-[2-(2-[[2-(2,6-dioxopiperidin-3-yl)-1,3-dioxoisoindol-4-yl]amino]ethoxy)ethoxy]ethyl]azetidine-3-sulfonamide formic acid], the IC50 (on BRD9 bromodomain; in experiment [1]) was under 10 nM throughout.

Consider `COc1cc(-c2cn(C)c(=O)c3cnccc23)cc(OC)c1CN1CC(S(=O)(=O)NCCCCCCNc2ccc3c(c2)C(=O)N(C2CCC(=O)NC2=O)C3=O)C1` (centres unmarked) [Compound D67, 1-[[2,6-dimethoxy-4-(2-methyl-1-oxo-1,2-dihydro-2,7-naphthyridin-4-yl)phenyl]methyl]-N-(6-[[2-(2,6-dioxopiperidin-3-yl)-1,3-dioxo-2,3-dihydro-1H-isoindol-5-yl]amino]hexyl)azetidine-3-sulfonamide formic acid], for which the IC50 (on BRD9 bromodomain; in experiment [1]) was under 10 nM each time.

Turning to `COc1cc(-c2cn(C)c(=O)c3cnccc23)cc(OC)c1CN(C)CC(=O)NCCCC(=O)NC12CC(Nc3cccc4c3C(=O)N(C3CCC(=O)NC3=O)C4=O)(C1)C2` (centres unmarked) [Compound D71, 4-(2-((2,6-dimethoxy-4-(2-methyl-1-oxo-1,2-dihydro-2,7-naphthyridin-4-yl)benzyl) (methyl)amino)acetamido)-N-(3-((2-(2,6-dioxopiperidin-3-yl)-1,3-dioxoisoindolin-4-yl)amino)bicycle[1.1.1]pentan-1-yl)butanamide], the concentration for half-maximal inhibition (IC50) on BRD9 bromodomain was under 10 nM. Further, the DC50 in experiment [1] was under 10 nM.

Turning to `COc1cc(-c2cn(C)c(=O)c3cnccc23)cc(OC)c1CN1CCN(C(=O)C2CC2CNC(=O)COc2cccc3c2C(=O)N(C2CCC(=O)NC2=O)C3=O)CC1` (centres unmarked) [Compound D65, N-[[2-(4-[[2,6-dimethoxy-4-(2-methyl-1-oxo-2,7-naphthyridin-4-yl)phenyl]methyl]piperazine-1-carbonyl)cyclopropyl]methyl]-2-[[2-(2,6-dioxopiperidin-3-yl)-1,3-dioxoisoindol-4-yl]oxy]acetamide], the results for the IC50 (at BRD9 bromodomain; in experiment [1]) were 10 to 100 nM and 100 to 1000 nM, respectively.

For `COc1cc(-c2cn(C)c(=O)c3cnccc23)cc(OC)c1CN(C)CC12CC(C(=O)NCCOCCOCCNc3cccc4c3C(=O)N(C3CCC(=O)NC3=O)C4=O)(C1)C2` (centres unmarked) [Compound D55, 3-[([[2,6-dimethoxy-4-(2-methyl-1-oxo-2,7-naphthyridin-4-yl)phenyl]methyl](methyl)amino)methyl]-N-[2-[2-(2-[[2-(2,6-dioxopiperidin-3-yl)-1,3-dioxoisoindol-4-yl]amino]ethoxy)ethoxy]ethyl]bicyclo[1.1.1]pentane-1-carboxamide], the IC50 was in the range of 10 to 100 nM at BRD9 bromodomain and 100 to 1000 nM in experiment [1].

Consider `COc1cc(-c2cn(C)c(=O)c3cnccc23)cc(OC)c1CN1CCC2(CCN(C(=O)CCOCCOc3cccc4c3C(=O)N(C3CCC(=O)NC3=O)C4=O)C2)C1` (centres unmarked) [Compound D108], for which the concentration for half-maximal inhibition (IC50) (on BRD9 bromodomain; in experiment [1]) was under 10 nM in each case.

Take `COc1cc(-c2cn(C)c(=O)c3cnccc23)cc(OC)c1CN1CCC2(CC1)CN(C(=O)COc1cccc3c1C(=O)N(C1CCC(=O)NC1=O)C3=O)CCO2` (centres unmarked) [Compound D41, 4-[2-(9-[[2,6-dimethoxy-4-(2-methyl-1-oxo-2,7-naphthyridin-4-yl)phenyl]methyl]-1-oxa-4,9-diazaspiro[5.5]undecan-4-yl)-2-oxoethoxy]-2-(2,6-dioxopiperidin-3-yl)isoindole-1,3-dione formic acid]: the IC50 at BRD9 bromodomain is under 10 nM. Further, in experiment [1], the DC50 lay in the range of 10 to 100 nM.

In the case of `COc1cc(-c2cn(C)c(=O)c3cnccc23)cc(OC)c1CN1CCC(OC2CCN(C(=O)CCOCCOc3ccc4c(c3)C(=O)N(C3CCC(=O)NC3=O)C4=O)CC2)CC1` (centres unmarked) [Compound D131], the IC50 (at BRD9 bromodomain; in experiment [1]) was under 10 nM in each case.

Consider `COc1cc(-c2cn(C)c(=O)c3cnccc23)cc(OC)c1CN1CC2(CC(NC(=O)CCOCCOc3cccc4c3C(=O)N(C3CCC(=O)NC3=O)C4=O)C2)C1` (centres unmarked) [Compound D93], for which the IC50 on BRD9 bromodomain is under 10 nM. In addition, the DC50 in experiment [1] is 10 to 100 nM.

On to `COc1cc(-c2cn(C)c(=O)c3cnccc23)cc(OC)c1CN(C)C1CCC12CCN(C(=O)CCOCCOc1cccc3c1C(=O)N(C1CCC(=O)NC1=O)C3=O)CC2` (centres unmarked) [Compound D110], for which the IC50 (on BRD9 bromodomain; in experiment [1]) was 10 to 100 nM throughout.

Consider `COc1cc(-c2cn(C)c(=O)c3cnccc23)cc(OC)c1CN1CCN(CCCOc2ccc3c(c2)C(=O)N(C2CCC(=O)NC2=O)C3=O)CC1` (centres unmarked) [Compound D53, 5-[3-(4-[[2,6-dimethoxy-4-(2-methyl-1-oxo-2,7-naphthyridin-4-yl)phenyl]methyl]piperazin-1-yl)propoxy]-2-(2,6-dioxopiperidin-3-yl)isoindole-1,3-dione], for which the IC50 (on BRD9 bromodomain; in experiment [1]) was under 10 nM each time.
